# According to patent US20010029261A1, “Small molecule sulfonamide hair growth compositions and uses” (GUILFORD PHARMACEUTICALS INC., priority 1997, published 2001):
# Key:
# [1] = target: FKBP12 (Homo sapiens, UniProt P62942); assay: Ki test procedure: inhibition of peptidyl-prolyl isomerase (rotamase) activity, chymotrypsin-coupled assay; type: biochemical; conditions: apparent Ki
# Description: The inhibition of the prolyl peptidyl cis-trans isomerase activity of FKBP may be measured as an indicator of this affinity.
# Inhibition of the peptidyl-prolyl isomerase (rotamase) activity of the compounds used in the inventive methods and pharmaceutical compositions can be evaluated by known methods described in the literature (Harding et al., Nature, 1989, 341:758-760; Holt et al. J. Am. Chem. Soc., 115:9923-9938). These values are obtained as apparent Ki's and are presented for representative compounds in TABLE II.
# The cis-trans isomerization of an alanine-proline bond in a model substrate, N-succinyl-Ala-Ala-Pro-Phe-p-nitroanilide, is monitored spectrophotometrically in a chymotrypsin-coupled assay, which releases para-nitroanilide from the trans form of the substrate. The inhibition of this reaction caused by the addition of different concentrations of inhibitor is determnined, and the data is analyzed as a change in first-order rate constant as a function of inhibitor concentration to yield the apparent Ki values.
# In a plastic cuvette are added […] of ice cold assay buffer (25 mM HEPES, pH 7.8, 100 mM NaCl), 10 mL of FKBP (2.5 mM in 10 mM Tris-Cl pH 7.5, 100 mM NaCl, 1 mM dithiothreitol), […] of chymotrypsin (50 mg/ml in 1 mM HCl) and […] of test compound at various concentrations in dimethyl sulfoxide. The reaction is initiated by the addition of 5 mL of substrate (succinyl-Ala-Phe-Pro-Phe-para-nitroanilide, 5 mg/mL in 2.35 mM LiCl in trifluoroethanol).
# The absorbance at 390 nm versus time is monitored for 90 seconds using a spectrophotometer and the rate constants are determined from the absorbance versus time data files.
# [2] = system: hair growth; conditions: topical, but not oral, application; cited from earlier work
# FKBP12, sequence (P62942 whole entry, species assumed): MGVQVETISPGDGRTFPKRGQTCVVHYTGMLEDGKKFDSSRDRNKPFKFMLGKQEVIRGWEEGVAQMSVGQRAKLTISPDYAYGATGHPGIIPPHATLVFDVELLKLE
Compound,Ki [1] [nM],hair growth stimulation [2]
"O=C(OCCCCc1ccccc1)C1CCCCN1S(=O)(=O)Cc1ccccc1 (racemic) [Compound 1, 4-phenyl-1-butyl-1-(benzylsulfonyl)-(2R,S)-2-pipecolinate]",72,
C=CC[C@@H]1/C=C(\C)C[C@H](C)C[C@H](OC)[C@H]2O[C@@](O)(C(=O)C(=O)N3CCCC[C@H]3C(=O)O[C@H](/C(C)=C/[C@@H]3CC[C@@H](O)[C@H](OC)C3)[C@H](C)[C@@H](O)CC1=O)[C@H](C)C[C@@H]2OC [FK506],,stimulates hair growth in a dose-dependent manner

# Now from value to compound, other results behind:
Ki [1] [nM],Compound,hair growth stimulation [2]
127,"O=C(OCCCCc1ccccc1)C1CCCCN1S(=O)(=O)Cc1ccccc1 (stereo not drawn) [Compound 7, 4-phenyl-1-butyl-N-(α-toluene-sulfonyl)pipecolate]",
332,"O=C(OCCCc1cccnc1)[C@@H]1CCCN1S(=O)(=O)Cc1ccccc1 [Compound 4, 3-(3-pyridyl)-1-propyl-(2S)-N-(α-toluenesulfonyl)pyrrolidine-2-carboxylate]",
34,"O=C(OC(CCc1ccccc1)CCc1ccccc1)C1CCCCN1S(=O)(=O)Cc1ccccc1 (stereo not drawn) [Compound 2, 1,5-diphenyl-3-pentyl-N-(α-toluene-sulfonyl)pipecolate]",
